This is an account of results in patent publication US8143394B2, “Pyrido(3,2-d)pyrimidines useful for treating viral infections” (Gilead Sciences, Inc., priority 2006, dated 2012).

Some results are limits rather than exact numbers.

One data set deals with HCV replicon. As to the kind of experiment: Anti-HCV replicon assay (EC50, luciferase readout). The data set is classed as cell-based. Particulars: Hepatitis C virus, 72 h; human hepatoma Huh-7 cell line harbouring a HCV replicon; 3 days; luciferase; read-out: EC50. As for the experimental part: (§1) The anti-HCV activity of the pyrido[3,2-d]pyrimidine derivatives of this invention was tested in a human hepatoma Huh-7 cell line harbouring a HCV replicon. The assay comprised the following steps:
(§2) Step 1: Compound Preparation and Serial Dilution
(§3) • 1. for water soluble pyrido[3,2-d]pyrimidine derivatives, a volume of 500 μL of solution in cell media (DMEM, 10% FBS, P/S, L-Glutamine) was prepared with a concentration being twice the concentration of the starting final serial dilution concentration. A volume of 150 μL of the solution was added to the pre-specified wells in column 1 of a 96-well cell culture plate (PerkinElmer, white plate, cat. #6005181, for EC50 assay; black plate, cat. #6005182 for CC50 assay). The rest of the plate, columns 2-12, was filled with 100 μL of cell media. The plate was then placed on a Precision 2000 Workstation to start the serial dilution. Compounds were diluted three times each step from column 1 to column 10. Column 11 was used as a blank control (no compound added). • 2. for pyrido[3,2-d]pyrimidine derivatives requiring DMSO to dissolve, serial dilution is performed in 50% DMSO in a 384-well plate. A solution containing a compound at 100-fold concentration of the starting final serial dilution concentration was prepared in 50% DMSO and added to the pre-specified wells in column 1 of a polypropylene 384-well plate. The plate was then placed on a Precision 2000 Workstation to start the serial dilution. After the serial dilution, a volume of 2 μL of the solution was transferred from the 384-well plate to a 96-well cell culture plate containing 100 μL of cell media on a Biomek FX Workstation. The DMSO concentration in the final assay condition was 0.5% after cells are added to the plate and the total volume in each well is brought to 200 μL. Step 2: to each well of the serial dilution plate prepared above, 100 μL of cell media containing 6000 suspended Huh-7 HCV replicon cells was added with a Multidrop workstation. The plates were incubated for 3 days at 37° C. with 5% CO2. Step 3: Detection: • a) for the EC50 assay, the media in a 96-well cell culture plate was aspirated with a Biotek EL405 plate-washer. A volume of 200 μL of a solution containing a 1:1 mixture of cell-lysis buffer (Promega, Luciferase Cell Culture Lysis 5X Reagent, cat. #E1531) and luciferase substrate solution (Promega, Luciferase Assay, cat. # E4550) was added to each well of the plate with Multidrop. The plate was incubated for 30 minutes at room temperature before the luminescence signal was measured with a TopCount plate-reader. • b) for the CC50 assay, a volume of 100 μL of pre-mixed CellTiter-Glo (Promega, cat. # G7572) solution is added directly to the cell culture in each well of the plate and the luminescence signal is measured with a TopCount plate-reader after 10 minutes of incubation at room temperature.
(§4) Results in table 13 are expressed by the following data: • the 50% effective concentration (EC50), i.e. the concentration that protects 50% of the cell monolayer from virus-induced cythopathic effect, and • the 50% cytostatic concentration (CC50), i.e. the concentration that results in 50% inhibition of cell growth.
(In antiviral work, replicon cells carry a viral genome segment that copies itself.)

Data set [1] is described as follows: CC50 assay (CellTiter-Glo) in Huh-7 HCV replicon cells. To be noted: human, 50% cytostatic concentration. The data set is classed as cell-based, human. As for the experimental part:
as §1, §2, §3, §4
In general terms: ATP-based viability assays read luminescence as a measure of living cells.

On to `CCOc1nc(N)nc2ccc(-c3ccc(C(=O)NC(C)C)cc3)nc12` [Example 61, 4-(2-Amino-4-ethoxy-pyrido[3,2-d]pyrimidin-6-yl)-N-isopropyl-benzamide], for which, in the data set with HCV replicon, the EC50 (commonly the concentration that produces a half-maximal response) fell in the range of 300 to 1000 nM. Besides, the CC50 – broadly, the concentration at which the toxic effect on the cells reaches its halfway point – at 3 days in data set [1] was over 20000 nM.

For the compound `CCOc1nc(N)nc2ccc(-c3cccc(NS(=O)(=O)CC)c3)nc12` [Example 54, Ethanesulfonic acid [3-(2-amino-4-ethoxy-pyrido[3,2-d]pyrimidin-6-yl)-phenyl]-amide], the EC50 in the data set on HCV replicon is under 300 nM. For the same compound, the CC50 at 3 days in data set [1] was over 20000 nM.

With `CCOc1nc(N)nc2ccc(-c3ccc(Nc4nncs4)cc3)nc12` [Example 32, 4-Ethoxy-6-[4-([1,3,4]thiadiazol-2-ylamino)-phenyl]-pyrido[3,2-d]pyrimidin-2-ylamine], the half-maximal effective concentration (EC50) in the data set on HCV replicon lay in the range of 300 to 1000 nM. In data set [1], the half-maximal cytotoxic concentration (CC50) at 3 days was over 20000 nM.

With `CCOc1nc(N)nc2ccc(-c3ncc(N)s3)nc12` [Example 47, 6-(5-amino-thiazol-2-yl)-4-ethoxy-pyrido[3,2-d]pyrimidin-2-ylamine], the EC50 in the data set on HCV replicon is under 300 nM. The compound also returned a cytotoxic concentration (CC50) at 3 days in data set [1] of 10000 to 20000 nM.

For the compound `Nc1nc(O[C@H]2CCOC2)c2nc(-c3ccc(C(=O)NCC(F)(F)F)cc3)ccc2n1` [Example 82, 4-[2-Amino-4-(tetrahydro-furan-3-yloxy)-pyrido[3,2-d]pyrimidin-6-yl]-N-(2,2,2-trifluoro-ethyl)-benzamide], the concentration for a half-maximal effect (EC50) in the data set with HCV replicon was under 300 nM. The compound further displayed a cytotoxic concentration (CC50) at 3 days in data set [1] of 10000 to 20000 nM.

In the case of `CC(C)C(=O)Nc1ccc(-c2ccc3nc(N)nc(O[C@H]4CCOC4)c3n2)cc1` [Example 27, N-{4-[2-Amino-4-(tetrahydro-furan-3-yloxy)-pyrido[3,2-d]pyrimidin-6-yl]-phenyl}-isobutyramide], the EC50 with HCV replicon was under 300 nM. This compound also displayed a CC50 at 3 days in data set [1] of over 20000 nM.

Take `COCCOc1nc(N)nc2ccc(-c3ccc(C(=O)NC(C)C)cc3)nc12` [Example 75, 4-[2-Amino-4-(2-methoxy-ethoxy)-pyrido[3,2-d]pyrimidin-6-yl]-N-isopropyl-benzamide]: the EC50 in the data set on HCV replicon was in the range of 300 to 1000 nM. The CC50 at 3 days in data set [1] was over 20000 nM.

With `CCOc1nc(N)nc2ccc(-c3ccc(C(=O)NC4CC4)s3)nc12` [Example 89, 2-amino-4-ethoxy-6-(2-(N-(cyclopropyl)carbamoyl)-5-thiophenyl)pyrido[3,2-d]pyrimidine], the EC50 with HCV replicon was under 300 nM. The CC50 at 3 days in data set [1] is over 20000 nM.

Regarding `CCOc1nc(N)nc2ccc(-c3cccc(NS(=O)(=O)c4cn(C)cn4)c3)nc12` [Example 49, 1-Methyl-1H-imidazole-4-sulfonic acid [3-(2-amino-4-ethoxy-pyrido[3,2-d]pyrimidin-6-yl)-phenyl]-amide], the concentration giving a half-maximal response (EC50) in the data set on HCV replicon was in the range of 300 to 1000 nM. This compound also came in with a 50% cytotoxic concentration (CC50) at 3 days in data set [1] of over 20000 nM.

As to `COCCOc1nc(N)nc2ccc(-c3ccc(C(=O)NOC)cc3)nc12` [Example 76, 4-[2-Amino-4-(2-methoxy-ethoxy)-pyrido[3,2-d]pyrimidin-6-yl]-N-methoxy-benzamide], the half-maximal effective concentration (EC50) in the data set on HCV replicon lay within 300 to 1000 nM. In data set [1], the CC50 at 3 days was over 20000 nM.

Consider `CC(C)CNC(=O)c1ccc(-c2ccc3nc(N)nc(OC(C)C)c3n2)cc1` [Example 64, 4-(2-Amino-4-isopropoxy-pyrido[3,2-d]pyrimidin-6-yl)-N-isobutyl-benzamide], for which, in the data set on HCV replicon, the EC50 lay within 300 to 1000 nM. Moreover, the CC50 at 3 days in data set [1] was over 20000 nM.

On to `CC(=O)Nc1ccc(-c2ccc3nc(N)nc(N4CCS(=O)(=O)CC4)c3n2)cc1` [Example 15, N-{4-[2-Amino-4-(1,1-dioxo-1λ^6-thiomorpholin-4-yl)-pyrido[3,2-d]pyrimidin-6-yl]-phenyl}-acetamide], for which the EC50 in the data set on HCV replicon was under 300 nM. Besides, in data set [1], the CC50 at 3 days is over 20000 nM.

As to `CCOc1nc(N)nc2ccc(-c3ccc(NC(=O)C4(N)CC4)cc3)nc12` [Example 36, 1-Amino-cyclopropanecarboxylic acid [4-(2-amino-4-ethoxy-pyrido[3,2-d]pyrimidin-6-yl)-phenyl]-amide], the 50% effective concentration (EC50) with HCV replicon is under 300 nM. Moreover, in data set [1], the CC50 at 3 days was over 20000 nM.
